Calls of active or inactive are those of the source. The rule behind the calls is not given here.
Assays:
Gallus gallus [1] = organism: Gallus gallus; test: Inhibition of Hen egg white lysozyme fibril formation by Thioflavin T spectroscopic assay relative to control; parameters: concentration or dose not given beside the values; conditions: dose or concentration not given here
Gallus gallus [2] = organism: Gallus gallus; test: Inhibition of Hen egg white lysozyme fibril formation by Circular dichroism
[3] = Inhibition of HEWL fibril-induced toxicity in human HEK cells assessed as cell viability by MTT assay ( Rvb = 55.2 +/- 7.2%); type: functional
Gallus gallus [4] = organism: Gallus gallus; test: Inhibition of Hen egg white lysozyme fibril formation assessed as decrease in conformational transition from alpha-helix to beta-sheet after 7 days by Raman spectroscopic assay; conditions: time 7.0 day
Gallus gallus [5] = organism: Gallus gallus; test: Inhibition of Hen egg white lysozyme fibril formation assessed as shorter fibrils after day 7 by TEM analysis

SMILES | inhibition (Gallus gallus [1]) | inhibition (Gallus gallus [2]) | Activity [3] | inhibition (Gallus gallus [4]) | inhibition (Gallus gallus [5])
COc1cccc(C(=O)[C@@H]2C3CCCN3[C@@]3(C(=O)Nc4ccccc43)[C@@]23C(=O)Nc2ccccc23)c1 (some centres undefined) | 20.3% | Active | 64.8% | Active | Active
O=C(O[C@@H]1Cc2c(O)cc(O)cc2O[C@@H]1c1cc(O)c(O)c(O)c1)c1cc(O)c(O)c(O)c1 | 24.4% |  |  |  | 
CC[C@H]1CN2CC[C@@]3(C(=O)Nc4ccccc43)[C@@H]2C[C@@H]1/C(=C\OC)C(=O)OC | 30.4% |  |  |  | 
CC[C@H]1CN2CC[C@]3(C(=O)Nc4ccccc43)[C@@H]2C[C@@H]1/C(=C\OC)C(=O)OC [RHYNCHOPHYLLINE] | 37.6% |  | 77% |  | 
COc1ccc(C(=O)[C@@H]2C3CCCN3[C@@]3(C(=O)Nc4ccccc43)[C@@]23C(=O)Nc2ccccc23)cc1 (some centres undefined) | 45.3% | Active | 47.7% | Active | Active
O=C(c1ccccc1)[C@@H]1C2CCCN2[C@@]2(C(=O)Nc3ccccc32)[C@@]12C(=O)Nc1ccccc12 (some centres undefined) | 22.7% | Active | 59.6% | Active | Active

— ChEMBL document CHEMBL5113470, “Regioselective pyrrolizidine bis-spirooxindoles as efficient anti-amyloidogenic agents” (2022)
